The results in this text go back to patent US20240116926A1, “HETEROAROMATIC COMPOUNDS” (AstraZeneca AB, priority 2022, published 2024).

pIC50: −log10 of the molar value. ≈ marks a conversion by molar mass, not a printed value. Bounds are passed on as bounds.

Data set [1] can be described thus: Protein binding measurements in human plasma (Hu PPB). Type of data set: in vitro ADME. As to conditions: equilibrium dialysis for 18 hours, fraction unbound. As for the experimental part: The automated equilibrium dialysis assay in human plasma uses the RED (Rapid Equilibrium Dialysis) Device and sample handling. The assay generally runs over two to three days including delivery of results. After dialysis for 18 hours, plasma and buffer samples are prepared for analysis by liquid chromatography and mass spectrometry. Samples are generally tested in singlicates and quantified by LC/MSMS by using a 7-point calibration curve in plasma. The compounds are pooled together in plasma pools up to 10 compounds. Three reference compounds are used in each run, Propranolol, Metoprolol and Warfarin. Warfarin is used as a control in each pool and Propranolol and Metoprolol are placed randomly in each run. An in-house Excel macro is used for preparation of files for the robot and the mass spectrometer and is also used for the calculations of fraction unbound (fu %) in plasma.
(In general: In equilibrium dialysis free small molecules cross a membrane that holds back macromolecules.)

The nature of data set [2]: Solubility (thermodynamic, shake-flask). The data set is classed as physicochemical. As to conditions: thermodynamic from solid; aqueous phosphate buffer (pH 7.4), 24 hours at 25° C. As for the experimental part:
The thermodynamic solubility of a research compound is measured under standard conditions. It is a shake-flask approach that uses 10 mM DMSO solutions which are supplied from the Compound Managements liquid store and is a high throughput method. The dried compounds are equilibrated in an aqueous phosphate buffer (pH 7.4) for 24 hours at 25° C., the portion with the dissolved compound is then separated from the remains. The solutions are analyzed and quantified using UPLC/MS/MS, QC-samples are incorporated in each assay-run to ensure the quality of the assay.

Data set [3] concerns MCF7-Luciferase cell line. In words: Control reporter (MCF7-Luciferase). As to conditions: MCF7-Luciferase cells, luciferase activity after 24 hours. The data set is classed as cell-based. On the procedure:
(iii) Control Reporter (MCF7-Luciferase)
MCF7-Luciferase cell line was obtained from […] (catalog number SC050-L) and was maintained in DMEM containing 10% fetal calf serum, 2 mM glutamine. Cells were grown in a humidified incubator at 37° C. with 5% CO2. Cells were distributed to flat bottom white polystyrene TC treated 384 well plates at a density of 3,500 cells/well in 30 μL. Cells were incubated for 24 hours at 37° C. with 5% CO2. Cells were acoustically dosed using an Echo 555, with compounds serially diluted in 100% DMSO. Plates were incubated for an additional 24 hours. Cells were examined for luciferase activity through the addition of 30 μL Bright-Glo luciferase (Promega catalog number E2620). Plates were incubated for 10 minutes at room temperature and luminescence was read using Tecan plate reader. The data obtained with each compound was exported to […] software to perform curve fitting analysis.

Data set [4] deals with TEAD4(217-434) (Homo sapiens (Human), UniProt Q15561). In words: TEAD4 FRET. The data set is classed as binding. The conditions noted are these: depalmitoylated, biotinylated TEAD4(217-434), FAM labelled Probe A, 120 min at 25° C. On the procedure: Compounds were dosed with a final DMSO concentration of 1% (v/v). Compound IC50 values were assessed following a 10-point, half-log10 dilution schema starting at 100 μM compound concentration. Specifically, human TEAD protein from TEAD4(217-434) was cloned into an overexpression vector, expressed as an N-terminal HIS-TEV-Avi-tagged fusion protein in E coli, and subsequently purified, then protein was chemically depalmitoylated & biotinylated. The assay was performed in 384-well LV plates (384-well black, medium binding, PS, HIBASE, GREINER #784076) and run in the presence and absence of the compound of interest. Each well of 5 μL assay mixture contained 10 mM Tris-HCl (pH 7.5), 100 mM NaCl, 0.05 mM EDTA, 1 mM TECP, 1% DMSO, 0.03% Pluronic acid F127, 20 nM dePal Avi TEAD4 (217-434)-depalmitoylated & biotinylated protein, 0.8 nM Streptavidin Terbium cryptate (CisBio #610SATLB), 625 nM FAM labelled Probe A. Reactions were incubated at 25° C. for 120 min before reading on a PHERASTAR FSX Plate Reader (337 520 490 HTRF module required) (Supplier BMP).
The data file from the PHERAstar FSX contains both the acceptor (520 nm) and donor channels (490 nm) (“Channel A”=acceptor channel (520 nm), “Channel B”=donor channel (490 nm)). The ratio of the donor and acceptor (Channel A/Channel B) is calculated within Genedata Assay Analyzer.
Probe A is 3′,6′-dihydroxy-3-oxo-N-{8-[2-(5-{2-[4-(trifluoromethyl)anilino]phenyl}-2H-tetrazol-2-yl)acetamido]octyl}-3H-spiro[[2]benzofuran-1,9′-xanthene]-5-carboxamide;

The subject of data set [5] is MCF7-Tead cell line. Nature of the data set: TEAD reporter assay. The data set is classed as cell-based. As to conditions: MCF7-Tead cells, luciferase activity after 24 hours. On the procedure:
MCF7-Tead cell line was obtained from BPS BIOSCIENCE (catalog number 60618) and was maintained in DMEM containing 10% fetal calf serum, 2 mM glutamine, and 400 μg/ml G418. Cells were grown in a humidified incubator at 37° C. with 5% CO2. Cells were distributed to flat bottom white polystyrene TC treated 384 well plates at a density of 3,500 cells/well in 30 uL. Cells were incubated for 24 hours at 37° C. with 5% CO2. Cells were acoustically dosed using an Echo 555, with compounds serially diluted in 100% DMSO. Plates were incubated for an additional 24 hours. Cells were examined for luciferase activity through the addition of 30 μL Bright-Glo luciferase (Promega catalog number E2620). Plates were incubated for 10 minutes at room temperature and luminescence was read using Tecan plate reader. The data obtained with each compound was exported to […] software to perform curve fitting analysis.
In general terms: Reporter assays use an easily measured gene product as a stand-in for the process of interest.

Usually solubility stands for how much of the substance goes into solution per volume. Read a high solubility as much dissolved substance. As usually defined, the pIC50 is −log10 of the IC50, conventionally taken in molar units.

TEAD4(217-434), sequence (Q15561 217-434): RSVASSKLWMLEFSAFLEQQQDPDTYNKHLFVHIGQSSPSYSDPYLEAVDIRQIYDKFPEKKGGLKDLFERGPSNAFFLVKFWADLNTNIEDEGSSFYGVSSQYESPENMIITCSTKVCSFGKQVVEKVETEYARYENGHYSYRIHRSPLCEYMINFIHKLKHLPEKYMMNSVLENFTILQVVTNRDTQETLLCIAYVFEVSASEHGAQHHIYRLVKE

Regarding `C=CC(=O)N1CC[C@H](Nc2nnc(-c3ccc(C(F)(F)F)cn3)c3cccnc23)C1` [Example 16, (S)-1-(3-((5-(5-(trifluoromethyl)pyridin-2-yl)pyrido[2,3-d]pyridazin-8-yl)amino)pyrrolidin-1-yl)prop-2-en-1-one], in data set [1], the “Hu PPB (% free)” value is on record as 25.0 % free. Further, the solubility at 24 h in data set [2] came to 114 µM (≈ 47.2 µg/mL). The pIC50 is under 4.50 in data set [3], 6.57 in data set [4] and 6.45 in data set [5].
On to `C=CC(=O)NCC1(Nc2nnc(-c3ccc(C(F)(F)F)cc3)c3ccccc23)CCC1` [Example 42, N-((1-((4-(4-(trifluoromethyl)phenyl)phthalazin-1-yl)amino)cyclobutyl)methyl)acrylamide], for which the “Hu PPB (% free)” value in data set [1] worked out at 0.8 % free. In addition, the solubility at 24 h in data set [2] was 19 µM (≈ 8.1 µg/mL). Moreover, the negative logarithm of the IC50 (pIC50) in data set [3] is 4.71; in data set [4], 7.15; in data set [5], 6.17.
For the compound `C=CC(=O)N1CC[C@H](Nc2nnc(-c3ccc(C(F)(F)F)cn3)c3ccccc23)C1` [Example 18, (S)-1-(3-((4-(5-(trifluoromethyl)pyridin-2-yl)phthalazin-1-yl)amino)pyrrolidin-1-yl)prop-2-en-1-one], the “Hu PPB (% free)” value in data set [1] came out at 10.0 % free. The compound also registered a solubility at 24 h in data set [2] of 47 µM (≈ 19.4 µg/mL). The figures for the pIC50 in data set [3], in data set [4] and in data set [5] were under 4.50, 6.70 and 6.59, respectively.
Consider `C=CC(=O)N1C[C@@H](CO)[C@H](Nc2nnc(-c3ccc(C(F)(F)F)cc3)c3cccnc23)C1` [Example 26, 1-((3R,4S)-3-(hydroxymethyl)-4-((5-(4-(trifluoromethyl)phenyl)pyrido[2,3-d]pyridazin-8-yl)amino)pyrrolidin-1-yl)prop-2-en-1-one], for which the “Hu PPB (% free)” value in data set [1] was determined as 26.0 % free. In addition, the solubility at 24 h in data set [2] is 175 µM (≈ 77.6 µg/mL). For the same compound, the results for the negative logarithm of the IC50 (pIC50) in data set [3], in data set [4] and in data set [5] were under 4.50, 7.12 and 7.38, respectively.
As for `C=CC(=O)N1C[C@@H](Nc2nnc(-c3ccc(C(F)(F)F)cc3)c3ccccc23)C[C@H]1CO` [Example 48, 1-((2S,4S)-2-(hydroxymethyl)-4-((4-(4-(trifluoromethyl)phenyl)phthalazin-1-yl)amino)pyrrolidin-1-yl)prop-2-en-1-one], the “Hu PPB (% free)” value in data set [1] is reported as 5.9 % free. This compound gave a solubility at 24 h in data set [2] of 2.4 µM (≈ 1.06 µg/mL). The negative-log IC50 (pIC50) in data set [3] was 4.79; in data set [4], 7.59; in data set [5] it was 7.59.
For `C=CC(=O)N1CCC[C@H](Nc2nnc(-c3ccc(C(F)(F)F)cc3)c3ccccc23)C1` [Example 50, (S)-1-(3-((4-(4-(trifluoromethyl)phenyl)phthalazin-1-yl)amino)piperidin-1-yl)prop-2-en-1-one], the “Hu PPB (% free)” value in data set [1] is given as 5.4 % free. In data set [2], the solubility at 24 h was under 1.6 µM. Besides, the pIC50 is 4.54 in data set [3], 7.52 in data set [4] and 6.73 in data set [5].
As to `C=CC(=O)N1C[C@H](CO)[C@@H](Nc2nnc(-c3ccc(C(F)(F)F)cc3)c3ccccc23)C1` [Example 22, 1-((3S,4R)-3-(hydroxymethyl)-4-((4-(4-(trifluoromethyl)phenyl)phthalazin-1-yl)amino)pyrrolidin-1-yl)prop-2-en-1-one], in data set [1], the “Hu PPB (% free)” value is 5.4 % free. This compound showed a solubility at 24 h in data set [2] of 65 µM (≈ 28.8 µg/mL). Also, the negative-log IC50 (pIC50) is under 4.50 in data set [3], 6.02 in data set [4] and 6.02 in data set [5].
On to `C=CC(=O)N1CC[C@@H](c2nc(-c3ccc(C(F)(F)F)cc3)c3ccccc3n2)C1` (racemic) [Comparative Example C, 1-(3-{4-[4-(trifluoromethyl)phenyl]-2-quinazolinyl}-1-pyrrolidinyl)-2-propen-1-one, reference compound], for which the “Hu PPB (% free)” value in data set [1] amounted to 1.1 % free. This compound yielded a solubility at 24 h in data set [2] of 66 µM (≈ 26.2 µg/mL). In addition, the pIC50 in data set [3] was 4.64; in data set [4] it was 7.26; in data set [5], 6.59.
The matching figures for `C=CC(=O)N1C[C@H](O)[C@H](Nc2nnc(-c3ccc(C(F)(F)F)cc3)c3cccnc23)C1` [Example 33, 1-((3S,4R)-3-hydroxy-4-((5-(4-(trifluoromethyl)phenyl)pyrido[2,3-d]pyridazin-8-yl)amino)pyrrolidin-1-yl)prop-2-en-1-one]: 17.0 % free, 365 µM (≈ 157 µg/mL), under 4.50, 7.17 and 6.97.
As to `C=CC(=O)N1C[C@@H](Nc2nnc(-c3ccc(C(F)(F)F)cc3)c3ccccc23)C[C@@H]1CO` [Example 47, 1-((2R,4S)-2-(hydroxymethyl)-4-((4-(4-(trifluoromethyl)phenyl)phthalazin-1-yl)amino)pyrrolidin-1-yl)prop-2-en-1-one], the “Hu PPB (% free)” value in data set [1] was determined as 8.3 % free. For the same compound, in data set [2], the solubility at 24 h amounted to 13 µM (≈ 5.75 µg/mL). In addition, the pIC50 in data set [3] was 4.68; in data set [4], 7.38; in data set [5] it was 7.77.
As for `C=CC(=O)N1CC[C@H](Nc2nnc(-c3ccc(C(F)(F)F)cc3)c3ncccc23)C1` [Example 7, (S)-1-(3-((8-(4-(trifluoromethyl)phenyl)pyrido[2,3-d]pyridazin-5-yl)amino)pyrrolidin-1-yl)prop-2-en-1-one], the “Hu PPB (% free)” value in data set [1] came out at 9.0 % free. The compound further gave a solubility at 24 h in data set [2] of 8.6 µM (≈ 3.56 µg/mL). Also, the results for the negative logarithm of the IC50 (pIC50) in data set [3], in data set [4] and in data set [5] were 4.55, 7.48 and 7.09, respectively.
For `C=CC(=O)N1CC[C@H](Nc2nnc(-c3ccc(C(F)(F)F)cc3)c3cccnc23)C1` [Example 8, (S)-1-(3-((5-(4-(trifluoromethyl)phenyl)pyrido[2,3-d]pyridazin-8-yl)amino)pyrrolidin-1-yl)prop-2-en-1-one], the “Hu PPB (% free)” value in data set [1] worked out at 12.0 % free. The compound further registered a solubility at 24 h in data set [2] of 32 µM (≈ 13.2 µg/mL). Further, the results for the pIC50 in data set [3], in data set [4] and in data set [5] were under 4.50, 7.25 and 7.14, respectively.
The matching figures for `C=CC(=O)N1C[C@H](CO)[C@H](Nc2nnc(-c3ccc(C(F)(F)F)cc3)c3ccccc23)C1` [Example 49, 1-((3S,4S)-3-(hydroxymethyl)-4-((4-(4-(trifluoromethyl)phenyl)phthalazin-1-yl)amino)pyrrolidin-1-yl)prop-2-en-1-one]: 9.8 % free, 165 µM (≈ 72.9 µg/mL), under 4.50, 7.23 and 7.24.
